Experimental data taken from patent publication US8563742B2, “Substituted aminothiazole derivatives, pharmaceutical compositions, and methods of use” (High Point Pharmaceuticals, LLC, priority 2008, dated 2013).
Like-named read-outs stand apart in the source and are kept apart here. Each block holds one compound with its values, some of them ahead of it.

Target: T1, human MC-4R (Homo sapiens, UniProt P32245)
T1 construct: expressed in transfected cells
Assay: Biological Assay: inhibition of AgRP functional interaction with MC-4R in presence of αMSH (cAMP production)
Type: cell-based
Conditions: HEK293 cells expressing human MC-4R, AgRP83-132 and αMSH present
Procedure: The following method is illustrative of techniques that may be employed to measure the ability of the compounds of Formula (I) to functionally modulate the binding of AgRP to melanocortin receptors. In particular, the assay below measures the ability of compounds of Formula (I) or pharmaceutically acceptable salts thereof to functionally modulate the binding of AgRP to MC-4R in the presence of a MC-4R agonist, such as alpha-MSH.
HEK293 cells stably expressing human MC-4R receptors were grown in high glucose Dulbecco's Modified Eagle Medium (DMEM) with 4500 mg glucose/L, L-glutamine, NaHCO3, pyrdoxin HCl, 10 mM HEPES (pH 7.4), 0.1 mM NEAA (non-essential amino acid medium) (GIBCO Cat#11140-050), 10% fetal bovine serum and 700 μg/mL G418. Cells were grown in T-225 flasks at 37° C. with CO2 and humidity control.
On the day of assay, cells were washed twice with phosphate buffered saline without calcium and magnesium (PBS) and incubated with 10 mL PBS until the cells were detached from the flask. The detached cells were centrifuged at 240 g for 5 min. The cell pellet was re-suspended in assay buffer (Earle's balanced salt solution (Sigma E3024) supplemented with 10 mM HEPES, pH 7.4, 0.5 mM IBMX and protease inhibitor cocktail (Roche, 1 complete tablet/75 mL buffer)).
The inhibitory or enhancement effect of compounds on AgRP activity was measured in a multi-component assay containing testing compounds, AgRP83-132 (human, Phoenix Pharma, cat no. 003-53), cells expressing MC-4R, and αMSH (Bachem, cat no. H-1075). Test compounds, AgRP and αMSH were diluted with assay buffer. Test compounds and AgRP were mixed to 4 times of the final concentration and incubated at room temperature for 30 min. Five μL of testing compound/AgRP solution followed with 10 μL of cells (20,000 cells/well) were added to each well of a 384-well reaction plate before 5 μL of αMSH was added. Cells were stimulated with αMSH for an additional 30 min at 37° C.
Stimulation of cells was stopped by adding a lysis buffer and cells were lysed. The intracellular concentration of cAMP may be measured by various techniques known to one of skill in the art including, but not limited to, fluorescence polarization (FP) and time-resolved fluorescence (TRF).
The inhibition was shown by an increase in MC-4R mediated cAMP production.

[1] = read-out: Average EC50 (nM) in Biological Assay
[2] = Average EC50 (nM) in Biological Assay

T1 sequence (P32245 whole entry): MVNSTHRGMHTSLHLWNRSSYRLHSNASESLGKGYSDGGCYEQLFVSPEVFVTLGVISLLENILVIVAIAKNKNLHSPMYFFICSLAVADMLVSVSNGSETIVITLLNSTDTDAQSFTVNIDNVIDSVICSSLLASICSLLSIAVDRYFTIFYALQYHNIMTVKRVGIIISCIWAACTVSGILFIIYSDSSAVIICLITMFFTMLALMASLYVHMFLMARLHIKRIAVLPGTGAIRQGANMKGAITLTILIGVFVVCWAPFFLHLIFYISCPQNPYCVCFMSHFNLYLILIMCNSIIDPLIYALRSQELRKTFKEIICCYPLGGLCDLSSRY

SMILES: CCc1ccc(CN(CCC(=O)O)c2nc([C@H]3CC[C@H](C(C)C)CC3)cs2)s1 [Example 10, Sodium; 3-[(5-ethyl-thiophen-2-ylmethyl)-[4-(4-trans-isopropyl-cyclohexyl)-thiazol-2-yl]-amino]-propionate]
EC50 [1]: 260 nM

SMILES: Cc1ccc(CN(CCC(=O)O)c2nc(C3Cc4ccccc4C3)cs2)s1 [Example 12, 3-[(4-Indan-2-yl-thiazol-2-yl)-(5-methyl-thiophen-2-ylmethyl)-amino]-propionic acid]
EC50 [1]: 384 nM

SMILES: CCc1ccc(CN(CCC(=O)O)c2nc(C3CCc4ccccc4C3)cs2)s1 (stereo not shown) [Example 13, 3-{(5-Ethyl-thiophen-2-ylmethyl)-[4-(1,2,3,4-tetrahydro-naphthalen-2-yl)-thiazol-2-yl]-amino}-propionic acid]
EC50 [1]: 528 nM

SMILES: Cc1ccc(CN(CCC(=O)O)c2nc(C3CCc4ccccc4C3)cs2)s1 (stereo not shown) [Example 14, 3-{(5-Methyl-thiophen-2-ylmethyl)-[4-(1,2,3,4-tetrahydro-naphthalen-2-yl)-thiazol-2-yl]-amino]-propionic acid]
EC50 [1]: 602 nM

SMILES: CCc1ccc(CN(CCC(=O)O)c2nc(C3CCC(C(F)(F)F)CC3)cs2)s1 (stereo not shown) [Example 17, 3-{(5-Ethyl-thiophen-2-ylmethyl)-[4-(4-trifluoromethyl-cyclohexyl)-thiazol-2-yl]-amino}-propionic acid]
EC50 [1]: 259 nM

SMILES: Cc1ccc(CN(CCC(=O)O)c2nc(C3CCC(C(F)(F)F)CC3)cs2)s1 (stereo not shown) [Example 18, 3-{(5-Methyl-thiophen-2-ylmethyl)-[4-(4-trifluoromethyl-cyclohexyl)-thiazol-2-yl]-amino}-propionic acid]
EC50 [1]: 416 nM

SMILES: CCc1ccc(CN(CCC(=O)O)c2nc(C3CCC(CC)CC3)cs2)s1 (stereo not shown) [Example 20, 3-[[4-(4-Ethyl-cyclohexyl)-thiazol-2-yl]-(5-ethyl-thiophen-2-ylmethyl)-amino]-propionic acid]
EC50 [2]: 389 nM

SMILES: CCCC1CCC(c2csc(N(CCC(=O)O)Cc3ccc(CC)s3)n2)CC1 (stereo not shown) [Example 22, 3-{(5-Ethyl-thiophen-2-ylmethyl)-[4-(4-propyl-cyclohexyl)-thiazol-2-yl]-amino]-propionic acid]
EC50 [1]: 394 nM

SMILES: CSc1ccc(CN(CCC(=O)O)c2nc(C3CCC(C(C)(C)C)CC3)cs2)s1 (stereo not shown) [Example 29, Sodium; 3-[[4-(4-tert-butyl-cyclohexyl)-thiazol-2-yl]-(5-methylsulfanyl-thiophen-2-ylmethyl)-amino]-propionate]
EC50 [1]: 427 nM

SMILES: COC1CCC(c2csc(N(CCC(=O)O)Cc3ccc(C)s3)n2)CC1 (stereo not shown) [Example 30, 3-[[4-(4-Methoxy-cyclohexyl)-thiazol-2-yl]-(5-methyl-thiophen-2-ylmethyl)-amino]-propionic acid]
EC50 [1]: 3890 nM

SMILES: CCc1ccc(CN(CCC(=O)O)c2nc(C3CCC(OC)CC3)cs2)s1 (stereo not shown) [Example 32, 3-{(5-Ethyl-thiophen-2-ylmethyl)-[4-(4-methoxy-cyclohexyl)-thiazol-2-yl]-amino}-propionic acid]
EC50 [1]: 2280 nM

SMILES: CCc1ccc(CN(CCC(=O)O)c2nc(C3CCC(OC)CC3)cs2)s1 (stereo not shown) [Example 33, 3-{(5-Ethyl-thiophen-2-ylmethyl)-[4-(4-methoxy-cyclohexyl)-thiazol-2-yl]-amino}-propionic acid]
EC50 [1]: 1230 nM

SMILES: Cc1ccc(CN(CCC(=O)O)c2nc(C3(c4ccc(F)cc4)CCCC3)cs2)s1 [Example 34, Sodium; 3-[{4-[1-(4-fluoro-phenyl)-cyclopentyl]-thiazol-2-yl}-(5-methyl-thiophen-2-ylmethyl)-amino]-propionate]
EC50 [1]: 269 nM

SMILES: CC(C)(C)C1CCC(c2csc(N(CCC(=O)O)Cc3ccc(S(C)(=O)=O)s3)n2)CC1 (stereo not shown) [Example 36, 3-[[4-(4-tert-Butyl-cyclohexyl)-thiazol-2-yl]-(5-methanesulfonyl-thiophen-2-ylmethyl)-amino]-propionic acid]
EC50 [1]: 267 nM

SMILES: CC(C)C1CCC(c2csc(N(CCC(=O)O)Cc3ccc(S(C)(=O)=O)s3)n2)CC1 (stereo not shown) [Example 37, 3-[[4-(4-Isopropyl-cyclohexyl)-thiazol-2-yl]-(5-methanesulfonyl-thiophen-2-ylmethyl)-amino]-propionic acid]
EC50 [2]: 524 nM

SMILES: Cc1ccc(CN(CCC(=O)O)c2nc(C3(C)CCC(C)(C)CC3)cs2)s1 [Example 52, 3-[[4-(1,4,4-trimethyl-cyclohexyl)-thiazol-2-yl]-(5-methyl-thiophen-2-ylmethyl)-amino]-propionic acid]
EC50 [1]: 267 nM

Further lines, results first:

EC50 [1]: 58 nM
SMILES: CCC1(c2csc(N(CCC(=O)O)Cc3ccc(C)s3)n2)CCC(C(C)C)CC1 (mixture of isomers) [Example 41, Sodium; 3-[[4-(1-ethyl-4-isopropyl-cyclohexyl)-thiazol-2-yl]-(5-methyl-thiophen-2-ylmethyl)-amino]-propionate]

EC50 [1]: 126 nM
SMILES: CCc1ccc(CN(CCC(=O)O)c2nc(C3CC4CCC3C4)cs2)s1 (stereo not shown) [Example 1, Sodium; 3-[(4-bicyclo[2.2.1]hept-2-yl-thiazol-2-yl)-(5-ethyl-thiophen-2-ylmethyl)-amino]-propionate]

EC50 [1]: 252 nM
SMILES: CCc1ccc(CN(CCC(=O)O)c2nc(C3Cc4ccccc4C3)cs2)s1 [Example 11, 3-[(5-Ethyl-thiophen-2-ylmethyl)-(4-indan-2-yl-thiazol-2-yl)-amino]-propionic acid]

EC50 [1]: 221 nM
SMILES: CCc1ccc(CN(CCC(=O)O)c2nc(CC3CCC(C)CC3)cs2)s1 (stereo not shown) [Example 15, 3-{(5-Ethyl-thiophen-2-ylmethyl)-[4-(4-methyl-cyclohexylmethyl)-thiazol-2-yl]-amino}-propionic acid]

EC50 [1]: 205 nM
SMILES: Cc1ccc(CN(CCC(=O)O)c2nc(CC3CCC(C)CC3)cs2)s1 (stereo not shown) [Example 16, 3-[[4-(4-Methyl-cyclohexylmethyl)-thiazol-2-yl]-(5-methyl-thiophen-2-ylmethyl)-amino]-propionic acid]

EC50 [1]: 79 nM
SMILES: CCc1ccc(CN(CCC(=O)O)c2nc(C3CCC(F)(F)CC3)cs2)s1 [Example 24, Sodium; 3-[[4-(4,4-difluoro-cyclohexyl)-thiazol-2-yl]-(5-ethyl-thiophen-2-ylmethyl)-amino]-propionate]

EC50 [1]: 114 nM
SMILES: Cc1ccc(CN(CCC(=O)O)c2nc(C3CCC(C(C)(C)C)CC3)cs2)s1 (stereo not shown) [Example 27, 3-[[4-(4-tert-Butyl-cyclohexyl)-thiazol-2-yl]-(5-methyl-thiophen-2-ylmethyl)-amino]-propionic acid]

EC50 [1]: 171 nM
SMILES: CCc1ccc(CN(CCC(=O)O)c2nc(C3CCC(C(C)(C)C)CC3)cs2)s1 (stereo not shown) [Example 28, 3-[[4-(4-tert-Butyl-cyclohexyl)-thiazol-2-yl]-(5-ethyl-thiophen-2-ylmethyl)-amino]-propionic acid]

EC50 [1]: 132 nM
SMILES: Cc1ccc(C2(c3csc(N(CCC(=O)O)Cc4ccc(C)s4)n3)CCCC2)cc1 [Example 35, Sodium; 3-{(5-methyl-thiophen-2-ylmethyl)-[4-(1-p-tolyl-cyclopentyl)-thiazol-2-yl]-amino}-propionate]

EC50 [1]: 173 nM
SMILES: CCc1ccc(CN(CCC(=O)O)c2nc(C3(CC(C)C)CCCC3)cs2)s1 [Example 43, 3-{(5-Ethyl-thiophen-2-ylmethyl)-[4-(1-isobutyl-cyclopentyl)-thiazol-2-yl]-amino}-propionic acid]

EC50 [1]: 191 nM
SMILES: Cc1cc(CN(CCC(=O)O)c2nc(C3(CC(C)C)CCCC3)cs2)c(C)s1 [Example 44, 3-{(2,5-Dimethyl-thiophen-3-ylmethyl)-[4-(1-isobutyl-cyclopentyl)-thiazol-2-yl]-amino}-propionic acid]

EC50 [1]: 159 nM
SMILES: CCC1(c2csc(N(CCC(=O)O)Cc3ccc(C)s3)n2)CCC(C)CC1 (stereo not shown) [Example 45, Sodium; 3-[[4-(1-ethyl-4-methyl-cyclohexyl)-thiazol-2-yl]-(5-methyl-thiophen-2-ylmethyl)-amino]-propionate]

EC50 [1]: 102 nM
SMILES: CCc1ccc(CN(CCC(=O)O)c2nc(C3(C)CCC(C(C)C)CC3)cs2)s1 (stereo not shown) [Example 49, Sodium; 3-{(5-ethyl-thiophen-2-ylmethyl)-[4-(4-isopropyl-1-methyl-cyclohexyl)-thiazol-2-yl]-amino}-propionate]

EC50 [1]: 154 nM
SMILES: Cc1ccc(CN(CCC(=O)O)c2nc(C3(C)CCC(C(C)(C)C)CC3)cs2)s1 (stereo not shown) [Example 50, 3-[[4-(4-tert-Butyl-1-methyl-cyclohexyl)-thiazol-2-yl]-(5-methyl-thiophen-2-ylmethyl)-amino]-propionic acid]

EC50 [1]: 143 nM
SMILES: Cc1ccc(CN(CCC(=O)O)c2nc(C3(C)CCC(c4ccccc4)CC3)cs2)s1 (stereo not shown) [Example 51, 3-[[4-(1-Methyl-4-phenyl-cyclohexyl)-thiazol-2-yl]-(5-methyl-thiophen-2-ylmethyl)-amino]-propionic acid]
